ChEMBL document CHEMBL1201862, “PubChem BioAssay data set” (2004)
The source made the active and inactive calls.

Tests used:
Phospholipase A2 = Phospholipase A2 (Homo sapiens, UniProt P04054); format: functional;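 also: confirmatory dose-response counterscreen on phospholipase A2, testing hits that came from an ultra-high-throughput screen for ATG4B inhibitors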
Cysteine protease ATG4B = biological target: T1, Cysteine protease ATG4B (Homo sapiens, UniProt Q9Y4P1); format: functional;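 also: Fluorescence-based dose-response confirmation assay measuring inhibition of ATG4B activity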
T1 sequence (Q9Y4P1 whole entry): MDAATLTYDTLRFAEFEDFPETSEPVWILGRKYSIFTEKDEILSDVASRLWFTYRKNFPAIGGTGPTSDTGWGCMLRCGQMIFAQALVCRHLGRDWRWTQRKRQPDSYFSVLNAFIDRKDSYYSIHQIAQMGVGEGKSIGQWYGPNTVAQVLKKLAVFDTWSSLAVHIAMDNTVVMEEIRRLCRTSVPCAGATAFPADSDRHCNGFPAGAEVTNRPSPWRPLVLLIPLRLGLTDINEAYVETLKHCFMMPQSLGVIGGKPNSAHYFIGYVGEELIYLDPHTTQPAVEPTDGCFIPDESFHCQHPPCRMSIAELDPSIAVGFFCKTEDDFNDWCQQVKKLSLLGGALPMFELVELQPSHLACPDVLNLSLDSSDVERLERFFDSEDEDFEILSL

HeLa = experiment: HeLa cell cytotoxicity, dose response, cytotoxicity control for MITF activator project, CellTiter-Glo luminescence, cherry-pick samples (AID 540259); format: functional, cell-based; details: Homo sapiens
Vero [1] = experiment: cells; format: functional; details: Chlorocebus sabaeus
Vero [2] = experiment: cells; format: functional, cell-based; details: Chlorocebus sabaeus
[3] = HEp-2 cell cytotoxicity, dose response, cytotoxicity control for RSV inhibitor project, HTS (AID 2410); format: functional; details: human respiratory syncytial virus
cells [4] = experiment: cells
[5] = biological target: T2, Short transient receptor potential channel 4 (Mus musculus, UniProt Q9QUQ5); experiment: mouse TRPC4 channel inhibitors, dose response, cell-based, HEK293 TRPC4/mu-opioid, Fluo-4 calcium (AID 434942); format: functional;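 also: potency of inhibitors blocking the TRPC4 calcium response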
T2 sequence (Q9QUQ5 whole entry): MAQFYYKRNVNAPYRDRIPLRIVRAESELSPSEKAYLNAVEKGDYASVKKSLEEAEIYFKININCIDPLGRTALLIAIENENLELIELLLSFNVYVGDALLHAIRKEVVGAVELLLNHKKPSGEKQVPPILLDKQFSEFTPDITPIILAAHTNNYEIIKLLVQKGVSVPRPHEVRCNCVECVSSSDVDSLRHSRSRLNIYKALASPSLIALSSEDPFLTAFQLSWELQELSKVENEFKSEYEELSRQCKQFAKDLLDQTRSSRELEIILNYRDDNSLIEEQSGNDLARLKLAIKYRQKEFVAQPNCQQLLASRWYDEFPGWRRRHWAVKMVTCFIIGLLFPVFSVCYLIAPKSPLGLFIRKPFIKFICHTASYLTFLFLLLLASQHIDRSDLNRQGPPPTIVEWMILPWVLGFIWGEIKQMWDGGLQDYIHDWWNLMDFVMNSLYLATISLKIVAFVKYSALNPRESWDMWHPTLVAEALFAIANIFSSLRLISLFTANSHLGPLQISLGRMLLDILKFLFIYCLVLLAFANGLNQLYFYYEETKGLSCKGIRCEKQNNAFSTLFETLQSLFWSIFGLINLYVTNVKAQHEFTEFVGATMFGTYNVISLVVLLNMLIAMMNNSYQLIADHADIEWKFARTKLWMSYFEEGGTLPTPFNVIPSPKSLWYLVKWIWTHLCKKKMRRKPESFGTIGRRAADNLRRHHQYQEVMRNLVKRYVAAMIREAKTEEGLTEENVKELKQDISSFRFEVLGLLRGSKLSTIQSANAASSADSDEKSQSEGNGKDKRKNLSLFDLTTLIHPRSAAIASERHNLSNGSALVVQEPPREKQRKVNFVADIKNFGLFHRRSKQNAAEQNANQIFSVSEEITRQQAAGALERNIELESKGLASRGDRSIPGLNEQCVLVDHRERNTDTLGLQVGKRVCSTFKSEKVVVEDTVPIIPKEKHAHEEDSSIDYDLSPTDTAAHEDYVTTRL

[6] = biological target: T2, Short transient receptor potential channel 4; experiment: mouse TRPC4 channel activators, dose response, cell-based, HEK293 TRPC4/mu-opioid, Fluo-4 calcium (AID 434937); format: functional
[7] = Luminescence Cell-Based Dose Confirmation to Identify Activators of 5'UTR Stem-Loop Driven Alpha-Synuclein mRNA Translation in H4 Neuroglioblastoma Cells. [Related pubchem assays: 1829 (Project Summary), 1814 (Primary HTS)]; format: functional
H4 = experiment: Luminescence Cell-Based Dose Response HTS to Identify Activators of 5'UTR Stem-Loop Driven Prion Protein mRNA Translation in H4 Neuroglioblastoma Cells. [Related pubchem assays: 1829 (Project Summary), 1814 (Primary HTS)]; format: functional; details: Homo sapiens
[8] = Luminescence Cell-Based Dose Response HTS to Identify Activators of Luciferase Translation or Activity in H4 […] Cells. [Related pubchem assays: 1829 (Project Summary), 1814 (Primary HTS)]; format: functional
[9] = Luminescence Cell-Based Dose Response to Identify Activators of Luciferase Translation or Activity in H4-C Neuroglioblastoma Cells. [Related pubchem assays: 1829 (Project Summary), 1814 (Primary HTS)]; format: functional
[10] = biological target: T3, Nuclear receptor subfamily 0 group B member 1 (Homo sapiens, UniProt P51843); experiment: Luminescence-based cell-based high throughput dose response assay for inhibitors of the orphan nuclear receptor subfamily 0, group B, member 1 (DAX1; NR0B1). [Related pubchem assays (depositor defined):AID504766, AID504790]; format: functional
T3 sequence (P51843 whole entry): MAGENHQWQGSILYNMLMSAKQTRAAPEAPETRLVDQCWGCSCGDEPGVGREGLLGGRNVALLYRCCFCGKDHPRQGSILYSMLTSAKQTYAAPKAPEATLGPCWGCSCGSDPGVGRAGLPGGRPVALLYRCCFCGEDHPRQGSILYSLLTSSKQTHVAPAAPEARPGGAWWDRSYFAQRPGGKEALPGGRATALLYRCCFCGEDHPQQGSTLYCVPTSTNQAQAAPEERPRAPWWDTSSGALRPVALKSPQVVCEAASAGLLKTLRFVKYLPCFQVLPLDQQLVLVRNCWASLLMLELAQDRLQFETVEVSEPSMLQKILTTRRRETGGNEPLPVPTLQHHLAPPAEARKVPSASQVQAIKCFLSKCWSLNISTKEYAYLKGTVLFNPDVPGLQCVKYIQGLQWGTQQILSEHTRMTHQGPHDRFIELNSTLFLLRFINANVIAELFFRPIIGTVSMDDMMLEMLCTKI

HEK293 = experiment: cells; format: functional, cell-based; details: Homo sapiens
[11] = Luminescence Cell-Based Dose Response to Identify Activators of 5'UTR Stem-Loop Driven Prion Protein mRNA Translation in H4-C Neuroglioblastoma Cells. [Related pubchem assays: 1829 (Project Summary), 1814 (Primary HTS)]; format: functional
[12] = biological target: T4, Oxysterols receptor LXR-beta (Homo sapiens, UniProt P55055); format: functional, cell-based;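 also: Cell-based luminescence dose-response assay of agonist activity at LXR, run as a confirmatory counterscreen to a daf-12 agonist screen; HEK293 cells with Gal4-LXR fusion and GAL4-driven luciferase reporter; agonist potency from rising luciferase signal of a Gal4-LXR reporter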
T4 sequence (P55055 whole entry): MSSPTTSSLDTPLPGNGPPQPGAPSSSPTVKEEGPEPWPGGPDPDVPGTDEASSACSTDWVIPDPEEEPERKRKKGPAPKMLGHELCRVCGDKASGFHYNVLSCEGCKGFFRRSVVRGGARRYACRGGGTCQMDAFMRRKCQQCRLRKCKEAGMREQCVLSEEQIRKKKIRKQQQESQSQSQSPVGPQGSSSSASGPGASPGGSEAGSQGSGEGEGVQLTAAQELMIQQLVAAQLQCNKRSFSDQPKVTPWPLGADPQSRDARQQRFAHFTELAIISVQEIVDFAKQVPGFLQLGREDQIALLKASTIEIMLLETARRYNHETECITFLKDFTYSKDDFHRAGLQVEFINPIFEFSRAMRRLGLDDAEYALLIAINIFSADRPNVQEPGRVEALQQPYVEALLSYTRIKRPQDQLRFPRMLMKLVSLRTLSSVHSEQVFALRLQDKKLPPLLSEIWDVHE

cells [13] = experiment: cells; remark: listed apart in the source
[14] = biological target: Beta-2 adrenergic receptor (Homo sapiens, UniProt P07550); experiment: beta2AR agonists driving receptor internalization, dose response, cell-based, FAP fluorogen, flow cytometry, cherry pick 1 (AID 588763); format: functional
Chain of Beta-2 adrenergic receptor (P07550 whole entry): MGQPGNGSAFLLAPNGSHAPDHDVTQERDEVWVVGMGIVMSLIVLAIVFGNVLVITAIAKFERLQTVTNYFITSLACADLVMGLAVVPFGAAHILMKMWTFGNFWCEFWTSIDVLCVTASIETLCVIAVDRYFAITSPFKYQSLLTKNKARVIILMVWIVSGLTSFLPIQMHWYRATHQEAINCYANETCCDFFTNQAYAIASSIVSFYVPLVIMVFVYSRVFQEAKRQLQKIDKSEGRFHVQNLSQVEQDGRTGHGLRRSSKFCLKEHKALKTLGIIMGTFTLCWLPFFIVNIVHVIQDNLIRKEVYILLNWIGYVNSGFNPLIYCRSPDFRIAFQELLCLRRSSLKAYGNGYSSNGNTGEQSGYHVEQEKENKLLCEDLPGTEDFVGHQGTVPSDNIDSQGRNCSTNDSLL

Hexokinase HKDC1 = biological target: T5, Hexokinase HKDC1 (Homo sapiens, UniProt Q2TB90); experiment: HKDC1 hexokinase inhibitors, SAR follow-up, biochemical, set 2 (AID 588355); format: functional
T5 sequence (Q2TB90 whole entry): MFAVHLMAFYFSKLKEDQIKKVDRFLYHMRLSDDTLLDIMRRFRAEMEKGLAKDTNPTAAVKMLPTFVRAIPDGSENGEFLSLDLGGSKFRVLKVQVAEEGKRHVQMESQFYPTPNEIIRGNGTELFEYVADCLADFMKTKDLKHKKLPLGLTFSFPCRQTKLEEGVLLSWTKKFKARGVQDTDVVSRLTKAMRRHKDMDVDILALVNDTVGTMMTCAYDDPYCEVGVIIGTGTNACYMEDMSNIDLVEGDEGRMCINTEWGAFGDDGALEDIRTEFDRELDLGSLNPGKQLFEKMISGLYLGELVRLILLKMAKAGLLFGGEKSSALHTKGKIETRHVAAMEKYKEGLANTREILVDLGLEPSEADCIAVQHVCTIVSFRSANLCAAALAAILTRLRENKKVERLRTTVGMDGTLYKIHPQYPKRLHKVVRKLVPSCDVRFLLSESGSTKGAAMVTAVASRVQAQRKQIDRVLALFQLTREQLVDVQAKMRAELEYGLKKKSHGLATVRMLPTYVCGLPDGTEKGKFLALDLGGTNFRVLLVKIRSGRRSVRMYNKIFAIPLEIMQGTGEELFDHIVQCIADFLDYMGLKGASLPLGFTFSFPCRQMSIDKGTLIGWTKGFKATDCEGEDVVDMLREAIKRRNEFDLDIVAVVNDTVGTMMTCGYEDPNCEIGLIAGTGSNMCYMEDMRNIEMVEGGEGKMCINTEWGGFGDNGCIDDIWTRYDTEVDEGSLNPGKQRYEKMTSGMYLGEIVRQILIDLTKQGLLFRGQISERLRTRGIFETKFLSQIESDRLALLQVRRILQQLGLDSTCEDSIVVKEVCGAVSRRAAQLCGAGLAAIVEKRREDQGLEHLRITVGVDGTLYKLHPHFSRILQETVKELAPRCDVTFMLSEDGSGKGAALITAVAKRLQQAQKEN

Hexokinase-1 = biological target: T6, Hexokinase-1 (Homo sapiens, UniProt P19367); experiment: HK1 enzyme inhibition by HKDC1 hits, SAR follow-up, selectivity assay for HKDC1 inhibitor project, biochemical, set 2, resazurin fluorescence coupled readout (AID 588356); format: functional
T6 sequence (P19367 whole entry): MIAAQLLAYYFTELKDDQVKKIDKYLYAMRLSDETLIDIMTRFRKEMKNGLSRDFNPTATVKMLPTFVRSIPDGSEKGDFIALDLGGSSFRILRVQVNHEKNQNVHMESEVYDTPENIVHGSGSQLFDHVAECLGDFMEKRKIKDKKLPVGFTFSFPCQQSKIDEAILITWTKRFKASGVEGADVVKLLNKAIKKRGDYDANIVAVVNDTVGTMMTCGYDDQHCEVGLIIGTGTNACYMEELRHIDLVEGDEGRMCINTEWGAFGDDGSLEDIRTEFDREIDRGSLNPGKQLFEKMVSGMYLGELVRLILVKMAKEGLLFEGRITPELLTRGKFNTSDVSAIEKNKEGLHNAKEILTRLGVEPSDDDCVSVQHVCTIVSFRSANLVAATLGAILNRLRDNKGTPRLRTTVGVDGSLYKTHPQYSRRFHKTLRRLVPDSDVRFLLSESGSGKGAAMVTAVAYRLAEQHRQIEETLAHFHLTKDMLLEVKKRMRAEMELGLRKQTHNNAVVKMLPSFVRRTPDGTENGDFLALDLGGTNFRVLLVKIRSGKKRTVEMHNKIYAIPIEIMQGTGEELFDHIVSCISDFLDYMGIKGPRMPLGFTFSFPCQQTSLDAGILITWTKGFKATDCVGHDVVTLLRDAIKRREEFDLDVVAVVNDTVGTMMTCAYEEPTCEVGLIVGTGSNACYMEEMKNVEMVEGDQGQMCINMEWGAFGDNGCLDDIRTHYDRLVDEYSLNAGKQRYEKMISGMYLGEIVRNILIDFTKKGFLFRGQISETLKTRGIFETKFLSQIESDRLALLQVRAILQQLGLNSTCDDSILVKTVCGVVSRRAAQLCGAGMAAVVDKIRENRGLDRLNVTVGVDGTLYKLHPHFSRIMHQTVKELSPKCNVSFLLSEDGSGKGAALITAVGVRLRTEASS

[15] = biological target: Dual specificity tyrosine-phosphorylation-regulated kinase 1A (Rattus norvegicus, UniProt Q63470); format: biochemical, Homo sapiens

Chain of Phospholipase A2 (P04054 whole entry): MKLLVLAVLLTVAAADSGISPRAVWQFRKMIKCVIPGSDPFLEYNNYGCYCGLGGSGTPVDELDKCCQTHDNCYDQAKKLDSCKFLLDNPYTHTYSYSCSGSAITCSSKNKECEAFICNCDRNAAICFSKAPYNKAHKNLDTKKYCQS

COc1ccccc1CNC(=O)c1ccccc1OCc1ccc(F)cc1
IC50 (Phospholipase A2): 49.5 µM (inactive) | IC50 (Cysteine protease ATG4B): 43.6 µM (inactive)

COc1ccccc1OCc1cc(-c2ccccc2)no1
AC50 (HeLa): 48 µM (active)

COc1cccc(NC(=O)[C@H](Cc2c[nH]c3ccccc23)NC(=O)[C@@H]2Cc3ccccc3CN2)c1
CC50 (Vero [1]): > 25 µM (active) | IC50 (Vero [2]): 9.61 µM (active) | CC50 [3]: 17.1 µM (active) | IC50 (cells [4]): 7.96 µM (active)

CN(C)C(CNC(=O)c1cc2ccccc2oc1=O)c1ccccc1 (centres undefined)
EC50 [5]: 0.149 µM (active) | EC50 [6]: 0.299 µM (active) | AC50 (HeLa): 240 µM (active)

CC(C)c1cc(C(=O)NCCc2ccccc2)no1
EC50 [7]: 1.06 µM (active) | EC50 (H4): 7.28 µM (active) | EC50 [8]: < 0.1 µM (inconclusive) | EC50 [9]: 0.375 µM (active) | IC50 [10]: > 67.5 µM (inactive) | IC50 (HEK293): > 67.5 µM (inactive) | EC50 [11]: 1.54 µM (active)

Cc1c(Cl)c([N+](=O)[O-])nn1Cc1ccc(C(=O)Nc2ccc(Cl)cn2)o1
IC50 (Phospholipase A2): 11.1 µM (active) | IC50 (Cysteine protease ATG4B): 22.5 µM (inactive)

Cn1c(=N)n(CC(=O)c2ccc(Br)cc2)c2ccccc21
EC50 [12]: > 67.5 µM (inactive) | EC50 (cells [13]): > 67.5 µM (inactive) | EC50 [14]: 15.6 µM (inactive)

Cc1ccccc1N1C(=O)c2ccccc2C1Nc1ccc(F)cc1 (centres undefined)
IC50 (Hexokinase HKDC1): > 80 µM (inactive) | IC50 (Hexokinase-1): > 80 µM (inactive)

O=c1c2cc(F)ccc2nc(/C=C/c2cccnc2)n1Cc1ccccc1
IC50 (Hexokinase HKDC1): > 80 µM (inactive) | IC50 (Hexokinase-1): > 80 µM (inactive)

COc1ccc(O)c(-c2cc(-c3ccccc3Cl)n[nH]2)c1
AC50 [15]: 2.77 µM (active)

O=c1cc(-c2ccccc2)oc2ccc(O)cc12 [6-HYDROXYFLAVONE]
IC50 [10]: > 67.6 µM (inactive) | IC50 (HEK293): > 67.6 µM (inactive)
